Reference: article PMC9541843, “N‐terminal alterations turn the gut hormone GLP‐2 into an antagonist with gradual loss of GLP‐2 receptor selectivity towards more GLP‐1 receptor interaction” (British Journal of Pharmacology, 2022)
Where two headings read alike, the source gives them in different places. Peptide text beside a SMILES is read from it. * marks the point of attachment. C16 diacid = O=C(O)CCCCCCCCCCCCCCC(=O)*

Experiments:
human GLP‐2R [1] = target: T1, human GLP‐2R (Homo sapiens, UniProt O95838); assay: cell-based; conditions: SEM
T1 sequence (O95838 1-553): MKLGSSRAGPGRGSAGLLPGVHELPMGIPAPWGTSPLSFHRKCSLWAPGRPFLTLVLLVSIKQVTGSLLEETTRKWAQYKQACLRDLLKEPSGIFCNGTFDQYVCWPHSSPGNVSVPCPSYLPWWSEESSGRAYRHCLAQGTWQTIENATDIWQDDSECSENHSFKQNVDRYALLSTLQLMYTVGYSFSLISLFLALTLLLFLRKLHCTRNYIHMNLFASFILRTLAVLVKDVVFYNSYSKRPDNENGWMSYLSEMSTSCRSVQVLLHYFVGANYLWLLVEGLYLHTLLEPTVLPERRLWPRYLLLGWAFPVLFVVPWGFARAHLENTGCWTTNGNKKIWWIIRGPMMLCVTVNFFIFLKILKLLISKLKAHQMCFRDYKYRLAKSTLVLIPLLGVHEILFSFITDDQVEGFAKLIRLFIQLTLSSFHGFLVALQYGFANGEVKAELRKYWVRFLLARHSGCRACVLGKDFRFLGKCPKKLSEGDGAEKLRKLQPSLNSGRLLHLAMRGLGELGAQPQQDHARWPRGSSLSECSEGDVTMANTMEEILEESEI

human GLP‐2R [2] = target: T1, human GLP‐2R; assay: cAMP accumulation, inhibition of GLP‐2‐induced activation; conditions: for cAMP inhibition Log IC50 ± SEM / cAMP inhibition IC50: COS‐7 cells, human GLP‐2R, n = 3 in duplicate; for cAMP inhibition Log IC50 ± SEM: 10 min preincubation with antagonist, then GLP‐2 for 20 min, mean ± SEM; for cAMP inhibition IC50: inhibition of GLP‐2‐induced cAMP; for IC50: SEM
human GLP‐2R [3] = target: T1, human GLP‐2R; assay: cAMP accumulation, agonism (HitHunter cAMP assay); conditions: for Emax: COS-7, read-out: cAMP activation Emax ± SEM; for cAMP activation Log EC50 ± SEM / cAMP activation EC50: COS‐7 cells, human GLP‐2R, 30 min at 37°C, n = 3 in duplicate; for cAMP activation Log EC50 ± SEM: mean ± SEM
human GLP‐1R = human GLP‐1R (Homo sapiens, UniProt P43220); assay: cAMP accumulation, inhibition of GLP‐1‐mediated response (selectivity); conditions: COS-7, read-out: Inhibition of GLP‐1‐mediated cAMP response at the human GLP‐1R
Sequence of human GLP‐1R (P43220 24-463): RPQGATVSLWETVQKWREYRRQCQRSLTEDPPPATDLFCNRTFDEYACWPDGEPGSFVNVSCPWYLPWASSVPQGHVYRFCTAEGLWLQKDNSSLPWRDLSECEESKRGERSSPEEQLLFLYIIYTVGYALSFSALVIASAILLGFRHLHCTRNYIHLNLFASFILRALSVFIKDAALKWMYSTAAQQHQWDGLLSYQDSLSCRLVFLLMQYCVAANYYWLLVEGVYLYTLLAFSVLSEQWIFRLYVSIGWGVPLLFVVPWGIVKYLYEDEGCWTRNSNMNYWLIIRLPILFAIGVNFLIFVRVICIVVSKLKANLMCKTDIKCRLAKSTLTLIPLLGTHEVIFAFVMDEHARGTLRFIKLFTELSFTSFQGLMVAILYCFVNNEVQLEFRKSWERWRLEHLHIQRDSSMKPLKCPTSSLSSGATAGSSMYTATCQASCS

| IC50 (human GLP‐2R [1]) | cAMP inhibition Log IC50 ± SEM (human GLP‐2R [2]) | cAMP inhibition IC50 (human GLP‐2R [2]) | EC50 (human GLP‐2R [3]) | Emax (human GLP‐2R [3]; SEM) | EC50 (human GLP‐2R [3]; SEM) | IC50 (human GLP‐2R [2]) | inhibition at 1 µM (human GLP‐1R) | cAMP activation Log EC50 ± SEM (human GLP‐2R [3]) | cAMP activation EC50 (human GLP‐2R [3]) | SMILES |
| --- | --- | --- | --- | --- | --- | --- | --- | --- | --- | --- |
| 79.4 nM | No inhibition | No inhibition | – | 19 ± 3% | 63.1 nM | – | – | – | – | CC[C@H](C)[C@H](NC(=O)[C@H](Cc1ccccc1)NC(=O)[C@H](CC(=O)O)NC(=O)[C@H](CCCNC(=N)N)NC(=O)[C@H](C)NC(=O)[C@H](C)NC(=O)[C@H](CC(C)C)NC(=O)[C@H](CC(N)=O)NC(=O)[C@H](CC(=O)O)NC(=O)[C@H](CC(C)C)NC(=O)[C@@H](NC(=O)[C@@H](NC(=O)[C@H](CC(N)=O)NC(=O)[C@H](CCSC)NC(=O)[C@H](CCC(=O)O)NC(=O)[C@@H](N)CC(=O)O)[C@@H](C)O)[C@@H](C)CC)C(=O)N[C@@H](CC(N)=O)C(=O)N[C@@H](Cc1c[nH]c2ccccc12)C(=O)N[C@@H](CC(C)C)C(=O)N[C@H](C(=O)N[C@@H](CCC(N)=O)C(=O)N[C@H](C(=O)N[C@@H](CCCCN)C(=O)N[C@H](C(=O)N[C@H](C(=O)N[C@@H](CC(=O)O)C(=O)O)[C@@H](C)O)[C@@H](C)CC)[C@@H](C)O)[C@@H](C)CC [GLP‐2(8‐33)] (H-DEMNTILDNLAARDFINWLIQTKITD-OH) |
| 794 nM | No inhibition | No inhibition | – | – | – | – | – | No activation | No activation | CC[C@H](C)[C@H](NC(=O)[C@H](Cc1ccccc1)NC(=O)[C@H](CC(=O)O)NC(=O)[C@H](CCCNC(=N)N)NC(=O)[C@H](C)NC(=O)[C@H](C)NC(=O)[C@H](CC(C)C)NC(=O)[C@H](CC(N)=O)NC(=O)[C@H](CC(=O)O)NC(=O)[C@H](CC(C)C)NC(=O)[C@@H](NC(=O)[C@@H](NC(=O)[C@@H](N)CC(N)=O)[C@@H](C)O)[C@@H](C)CC)C(=O)N[C@@H](CC(N)=O)C(=O)N[C@@H](Cc1c[nH]c2ccccc12)C(=O)N[C@@H](CC(C)C)C(=O)N[C@H](C(=O)N[C@@H](CCC(N)=O)C(=O)N[C@H](C(=O)N[C@@H](CCCCN)C(=O)N[C@H](C(=O)N[C@H](C(=O)N[C@@H](CC(=O)O)C(=O)O)[C@@H](C)O)[C@@H](C)CC)[C@@H](C)O)[C@@H](C)CC [GLP‐2(11‐33)] (H-NTILDNLAARDFINWLIQTKITD-OH) |
| 126 nM | – | – | – | – | – | 407 nM | – | No activation | No activation | CC[C@H](C)[C@H](NC(=O)[C@H](Cc1ccccc1)NC(=O)[C@H](CC(=O)O)NC(=O)[C@H](CCCNC(=N)N)NC(=O)[C@H](C)NC(=O)[C@H](C)NC(=O)[C@H](CC(C)C)NC(=O)[C@H](CC(N)=O)NC(=O)[C@H](CC(=O)O)NC(=O)[C@H](CC(C)C)NC(=O)[C@@H](NC(=O)[C@@H](NC(=O)[C@H](CC(N)=O)NC(=O)[C@@H](N)CCSC)[C@@H](C)O)[C@@H](C)CC)C(=O)N[C@@H](CC(N)=O)C(=O)N[C@@H](Cc1c[nH]c2ccccc12)C(=O)N[C@@H](CC(C)C)C(=O)N[C@H](C(=O)N[C@@H](CCC(N)=O)C(=O)N[C@H](C(=O)N[C@@H](CCCCN)C(=O)N[C@H](C(=O)N[C@H](C(=O)N[C@@H](CC(=O)O)C(=O)O)[C@@H](C)O)[C@@H](C)CC)[C@@H](C)O)[C@@H](C)CC [GLP‐2(10‐33)] (H-MNTILDNLAARDFINWLIQTKITD-OH) |
| 79.4 nM | No inhibition | No inhibition | – | 65 ± 3.6% | 200 nM | – | – | – | – | CC[C@H](C)[C@H](NC(=O)[C@H](Cc1ccccc1)NC(=O)[C@H](CC(=O)O)NC(=O)[C@H](CCCNC(=N)N)NC(=O)[C@H](C)NC(=O)[C@H](C)NC(=O)[C@H](CC(C)C)NC(=O)[C@H](CC(N)=O)NC(=O)[C@H](CC(=O)O)NC(=O)[C@H](CC(C)C)NC(=O)[C@@H](NC(=O)[C@@H](NC(=O)[C@H](CC(N)=O)NC(=O)[C@H](CCSC)NC(=O)[C@@H](N)CCC(=O)O)[C@@H](C)O)[C@@H](C)CC)C(=O)N[C@@H](CC(N)=O)C(=O)N[C@@H](Cc1c[nH]c2ccccc12)C(=O)N[C@@H](CC(C)C)C(=O)N[C@H](C(=O)N[C@@H](CCC(N)=O)C(=O)N[C@H](C(=O)N[C@@H](CCCCN)C(=O)N[C@H](C(=O)N[C@H](C(=O)N[C@@H](CC(=O)O)C(=O)O)[C@@H](C)O)[C@@H](C)CC)[C@@H](C)O)[C@@H](C)CC [GLP‐2(9‐33)] (H-EMNTILDNLAARDFINWLIQTKITD-OH) |

Continued, compound first:

| SMILES | IC50 (human GLP‐2R [1]) | cAMP inhibition Log IC50 ± SEM (human GLP‐2R [2]) | cAMP inhibition IC50 (human GLP‐2R [2]) | EC50 (human GLP‐2R [3]) | Emax (human GLP‐2R [3]; SEM) | EC50 (human GLP‐2R [3]; SEM) | IC50 (human GLP‐2R [2]) | inhibition at 1 µM (human GLP‐1R) | cAMP activation Log EC50 ± SEM (human GLP‐2R [3]) | cAMP activation EC50 (human GLP‐2R [3]) |
| --- | --- | --- | --- | --- | --- | --- | --- | --- | --- | --- |
| CC[C@H](C)[C@H](NC(=O)[C@H](Cc1ccccc1)NC(=O)[C@H](CC(=O)O)NC(=O)[C@H](CCCNC(=N)N)NC(=O)[C@H](C)NC(=O)[C@H](C)NC(=O)[C@H](CC(C)C)NC(=O)[C@H](CC(N)=O)NC(=O)[C@H](CC(=O)O)NC(=O)[C@H](CC(C)C)NC(=O)[C@@H](NC(=O)[C@@H](NC(=O)[C@H](CC(N)=O)NC(=O)[C@H](CCSC)NC(=O)[C@H](CCC(=O)O)NC(=O)[C@H](CC(=O)O)NC(=O)[C@@H](N)CO)[C@@H](C)O)[C@@H](C)CC)C(=O)N[C@@H](CC(N)=O)C(=O)N[C@@H](Cc1c[nH]c2ccccc12)C(=O)N[C@@H](CC(C)C)C(=O)N[C@H](C(=O)N[C@@H](CCC(N)=O)C(=O)N[C@H](C(=O)N[C@@H](CCCCN)C(=O)N[C@H](C(=O)N[C@H](C(=O)N[C@@H](CC(=O)O)C(=O)O)[C@@H](C)O)[C@@H](C)CC)[C@@H](C)O)[C@@H](C)CC [GLP‐2(7‐33)] (H-SDEMNTILDNLAARDFINWLIQTKITD-OH) | 20 nM | No inhibition | No inhibition | 126 nM | 27 ± 3.8% | – | – | – | – | – |
| CC[C@H](C)[C@H](NC(=O)[C@H](Cc1ccccc1)NC(=O)[C@H](CC(=O)O)NC(=O)[C@H](CCCNC(=N)N)NC(=O)[C@H](C)NC(=O)[C@H](C)NC(=O)[C@H](CC(C)C)NC(=O)[C@H](CC(N)=O)NC(=O)[C@H](CC(=O)O)NC(=O)[C@H](CC(C)C)NC(=O)[C@@H](NC(=O)[C@@H](NC(=O)[C@H](CC(N)=O)NC(=O)[C@H](CCSC)NC(=O)[C@H](CCC(=O)O)NC(=O)[C@H](CC(=O)O)NC(=O)[C@H](CO)NC(=O)[C@H](Cc1ccccc1)NC(=O)[C@@H](N)CO)[C@@H](C)O)[C@@H](C)CC)C(=O)N[C@@H](CC(N)=O)C(=O)N[C@@H](Cc1c[nH]c2ccccc12)C(=O)N[C@@H](CC(C)C)C(=O)N[C@H](C(=O)N[C@@H](CCC(N)=O)C(=O)N[C@H](C(=O)N[C@@H](CCCCN)C(=O)N[C@H](C(=O)N[C@H](C(=O)N[C@@H](CC(=O)O)C(=O)O)[C@@H](C)O)[C@@H](C)CC)[C@@H](C)O)[C@@H](C)CC [GLP‐2(5‐33)] (H-SFSDEMNTILDNLAARDFINWLIQTKITD-OH) | 12.6 nM | – | – | – | 40 ± 4.1% | 25.1 nM | 200 nM | – | – | – |
| CC[C@H](C)[C@H](NC(=O)[C@H](Cc1ccccc1)NC(=O)[C@H](CC(=O)O)NC(=O)[C@H](CCCNC(=N)N)NC(=O)[C@H](C)NC(=O)[C@H](C)NC(=O)[C@H](CC(C)C)NC(=O)[C@H](CCCCNC(=O)CCCCCCCCCCCCCCC(=O)O)NC(=O)[C@H](CC(=O)O)NC(=O)[C@H](CC(C)C)NC(=O)[C@@H](NC(=O)[C@@H](NC(=O)[C@H](CC(N)=O)NC(=O)[C@H](CCSC)NC(=O)[C@H](CCC(=O)O)NC(=O)[C@H](CC(=O)O)NC(=O)[C@H](CO)NC(=O)[C@H](Cc1ccccc1)NC(=O)[C@H](CO)NC(=O)CNC(=O)[C@@H](N)CC(=O)O)[C@@H](C)O)[C@@H](C)CC)C(=O)N[C@@H](CC(N)=O)C(=O)N[C@@H](Cc1c[nH]c2ccccc12)C(=O)N[C@@H](CC(C)C)C(=O)N[C@H](C(=O)N[C@@H](CCC(N)=O)C(=O)N[C@H](C(=O)N[C@@H](CCCCN)C(=O)N[C@H](C(=O)N[C@H](C(=O)N[C@@H](CC(=O)O)C(=O)O)[C@@H](C)O)[C@@H](C)CC)[C@@H](C)O)[C@@H](C)CC [GLP‐2(3‐33)[N16K](C16‐diacid/16)] (H-DGSFSDEMNTILDK(C16 diacid)LAARDFINWLIQTKITD-OH) | – | – | – | – | – | – | – | 72% | – | – |
| CC[C@H](C)[C@H](NC(=O)[C@H](Cc1ccccc1)NC(=O)[C@H](CC(=O)O)NC(=O)[C@H](CCCNC(=N)N)NC(=O)[C@H](C)NC(=O)[C@H](C)NC(=O)[C@H](CC(C)C)NC(=O)[C@H](CC(N)=O)NC(=O)[C@H](CC(=O)O)NC(=O)[C@H](CC(C)C)NC(=O)[C@@H](NC(=O)[C@@H](NC(=O)[C@H](CC(N)=O)NC(=O)[C@H](CCSC)NC(=O)[C@H](CCC(=O)O)NC(=O)[C@H](CC(=O)O)NC(=O)[C@H](CO)NC(=O)[C@@H](N)Cc1ccccc1)[C@@H](C)O)[C@@H](C)CC)C(=O)N[C@@H](CC(N)=O)C(=O)N[C@@H](Cc1c[nH]c2ccccc12)C(=O)N[C@@H](CC(C)C)C(=O)N[C@H](C(=O)N[C@@H](CCC(N)=O)C(=O)N[C@H](C(=O)N[C@@H](CCCCN)C(=O)N[C@H](C(=O)N[C@H](C(=O)N[C@@H](CC(=O)O)C(=O)O)[C@@H](C)O)[C@@H](C)CC)[C@@H](C)O)[C@@H](C)CC [GLP‐2(6‐33)] (H-FSDEMNTILDNLAARDFINWLIQTKITD-OH) | 31.6 nM | – | – | – | 46 ± 5.1% | 39.8 nM | 501 nM | – | – | – |
